Measured values: US10722514B2 (FLX Bio, Inc., priority 2017, dated 2020)

Target: T1, recombinant full-length USP7 (Homo sapiens, UniProt Q93009)
T1 construct: A 25 μl reaction volume containing recombinant full-length USP7 (62 pM)
Test: USP7-mediated ubiquitin-rhodamine cleavage assay
Format: biochemical
Details: recombinant full-length USP7 62 pM; ubiquitin-rhodamine 100 nM; 30-minute pre-incubation, 1 hour reaction at room temperature; read-out: Potency (USP7 IC50)
How it was run: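 USP7 (62 pM) in 20 mM HEPES pH 7.3, 150 mM NaCl, 1 mM TCEP, 125 μg/ml BSA was preincubated with compound (1% DMSO) for 30 min at room temperature. Ubiquitin-rhodamine (100 nM final) was then added for 1 hour, the reaction stopped with acetic acid, and fluorescence read; IC50 from 4-parameter fit.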

T1 sequence (Q93009 whole entry): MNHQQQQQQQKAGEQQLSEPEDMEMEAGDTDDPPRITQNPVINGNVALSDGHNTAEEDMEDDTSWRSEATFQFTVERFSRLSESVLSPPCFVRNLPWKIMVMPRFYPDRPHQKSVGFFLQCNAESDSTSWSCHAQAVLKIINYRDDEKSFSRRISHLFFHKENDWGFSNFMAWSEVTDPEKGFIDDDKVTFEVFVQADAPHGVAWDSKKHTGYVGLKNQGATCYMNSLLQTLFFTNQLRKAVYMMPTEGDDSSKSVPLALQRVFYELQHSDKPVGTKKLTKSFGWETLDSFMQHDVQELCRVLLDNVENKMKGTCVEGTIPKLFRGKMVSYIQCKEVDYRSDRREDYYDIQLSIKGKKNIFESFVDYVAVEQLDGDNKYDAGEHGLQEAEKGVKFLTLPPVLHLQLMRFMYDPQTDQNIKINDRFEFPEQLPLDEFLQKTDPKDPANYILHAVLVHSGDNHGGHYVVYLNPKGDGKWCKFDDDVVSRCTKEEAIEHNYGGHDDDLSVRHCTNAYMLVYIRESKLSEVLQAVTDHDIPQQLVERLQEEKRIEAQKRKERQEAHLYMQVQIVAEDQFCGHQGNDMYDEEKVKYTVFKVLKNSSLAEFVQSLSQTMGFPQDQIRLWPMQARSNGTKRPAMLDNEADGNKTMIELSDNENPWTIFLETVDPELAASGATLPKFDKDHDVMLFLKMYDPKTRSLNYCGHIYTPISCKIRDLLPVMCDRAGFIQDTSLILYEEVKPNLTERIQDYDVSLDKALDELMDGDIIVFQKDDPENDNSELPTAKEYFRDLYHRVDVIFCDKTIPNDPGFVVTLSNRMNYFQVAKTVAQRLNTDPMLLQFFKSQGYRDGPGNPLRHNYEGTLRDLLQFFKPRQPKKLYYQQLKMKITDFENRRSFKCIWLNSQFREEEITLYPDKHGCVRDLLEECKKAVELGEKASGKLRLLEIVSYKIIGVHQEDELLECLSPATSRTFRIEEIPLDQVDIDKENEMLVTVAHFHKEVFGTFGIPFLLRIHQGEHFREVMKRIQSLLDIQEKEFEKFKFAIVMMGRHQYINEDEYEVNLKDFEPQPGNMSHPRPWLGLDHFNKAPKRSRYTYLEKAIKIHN

Question: `Cc1cc(Cl)cc(-c2ncnc3cc(Cn4c(=O)ccn(C(C)C)c4=O)sc23)c1OC1CC(N)C1` (centres unmarked) [Example 541, 3-[[4-[2-(3-aminocyclobutoxy)-5-chloro-3-methyl-phenyl]thieno[3,2-d]pyrimidin-6-yl]methyl]-1-isopropyl-pyrimidine-2,4-dione; 2,2,2-trifluoroacetic acid] was tested. Which IC50 did it give?
Answer: The IC50 was less than 1 µM.

Question: Which IC50 does the source give for `Cc1cc(Cl)cc(-c2ncnc3cc(Cn4c(=O)ccn(C(C)C)c4=O)sc23)c1O[C@H]1CC[C@H](N)C1` [Example 542, 3-[[4-[2-[(1S,3S)-3-aminocyclopentoxy]-5-chloro-3-methyl-phenyl]thieno[3,2-d]pyrimidin-6-yl]methyl]-1-isopropyl-pyrimidine-2,4-dione; 2,2,2-trifluoroacetic acid] here?
Answer: The IC50 was less than 1 µM.

Question: Which IC50 does the source give for `Cc1cc(Cl)cc(-c2ncnc3cc(Cn4c(=O)ccn(CC(F)(F)F)c4=O)sc23)c1O[C@H]1CC[C@H](N)C1` [Example 543, 3-[[4-[2-[(1S,3S)-3-aminocyclopentoxy]-5-chloro-3-methyl-phenyl]thieno[3,2-d]pyrimidin-6-yl]methyl]-1-(2,2,2-trifluoroethyl)pyrimidine-2,4-dione; 2,2,2-trifluoroacetic acid] here?
Answer: The IC50 was less than 1 µM.

Question: For `Cc1cc(Cl)cc(-c2ccnc3cc(Cn4c(=O)ccn(C)c4=O)sc23)c1O[C@@H]1CCNC[C@]1(C)F` [Example 544, 3-[[7-[5-chloro-2-[[(3S,4R)-3-fluoro-3-methyl-4-piperidyl]oxy]-3-methyl-phenyl]thieno[3,2-b]pyridin-2-yl]methyl]-1-methyl-pyrimidine-2,4-dione; 2,2,2-trifluoroacetic acid], which IC50 is on record?
Answer: The IC50 was less than 1 µM.

Question: With `Cc1cc(Cl)cc(-c2ccnc3cc(Cn4c(=O)ccn(C)c4=O)sc23)c1O[C@H]1CCNC[C@]1(C)F` [Example 545, 3-[[7-[5-chloro-2-[[(3S,4S)-3-fluoro-3-methyl-4-piperidyl]oxy]-3-methyl-phenyl]thieno[3,2-b]pyridin-2-yl]methyl]-1-methyl-pyrimidine-2,4-dione; 2,2,2-trifluoroacetic acid] as the compound, how does the IC50 read?
Answer: The IC50 was less than 1 µM.

Question: With `Cc1cc(Cl)cc(-c2ccnc3cc(Cn4c(=O)ccn(C)c4=O)sc23)c1OC1CCNCC1(C)C` (centres unmarked) [Example 546, 3-[[7-[5-chloro-2-[(3,3-dimethyl-4-piperidyl)oxy]-3-methyl-phenyl]thieno[3,2-b]pyridin-2-yl]methyl]-1-methyl-pyrimidine-2,4-dione; 2,2,2-trifluoroacetic acid] as the compound, how does the IC50 read?
Answer: Its IC50 is less than 1 µM.

Question: For `Cc1cc(Cl)cc(-c2ccnc3cc(Cn4c(=O)c(F)cn(C(C)C)c4=O)sc23)c1O[C@H]1CCCNC1` [Example 547, 3-[[7-[5-chloro-3-methyl-2-[[(3S)-3-piperidyl]oxy]phenyl]thieno[3,2-b]pyridin-2-yl]methyl]-5-fluoro-1-isopropyl-pyrimidine-2,4-dione], which IC50 is on record?
Answer: Its IC50 is less than 1 µM.

Question: How did the IC50 turn out when `Cc1cc(Cl)cc(-c2ncnc3cc(Cn4c(=O)c(F)cn(C(C)C)c4=O)sc23)c1O[C@H]1CCCNC1` [Example 548, 3-[[4-[5-chloro-3-methyl-2-[[(3S)-3-piperidyl]oxy]phenyl]thieno[3,2-d]pyrimidin-6-yl]metthyl]-5-fluoro-1-isopropyl-pyrimidine-2,4-dione] was run?
Answer: Its IC50 is less than 1 µM.

Question: How did the IC50 turn out when `Cc1cc(Cl)cc(-c2ccnc3cc(Cn4c(=O)ccn(CC(F)(F)F)c4=O)sc23)c1O[C@@H]1CCNC[C@@H]1C` [Example 549, 3-[[7-[5-chloro-3-methyl-2-[[(3S,4R)-3-methyl-4-piperidyl]oxy]phenyl]thieno[3,2-b]pyridin-2-yl]methyl]-1-(2,2,2-trifluoroethyl)pyrimidine-2,4-dione] was run?
Answer: Its IC50 is less than 1 µM.

Question: For `Cc1cc(Cl)cc(-c2ccnc3cc(Cn4c(=O)c(F)cn(C(C)C)c4=O)sc23)c1O[C@@H]1CCNC[C@@H]1C` [Example 550, 3-[[7-[5-chloro-3-methyl-2-[[(3S,4R)-3-methyl-4-piperidyl]oxy]phenyl]thieno[3,2-b]pyridin-2-yl]methyl]-5-fluoro-1-isopropyl-pyrimidine-2,4-dione], which IC50 is on record?
Answer: The IC50 was less than 1 µM.

Question: How did the IC50 turn out when `Cc1cc(Cl)cc(-c2ccnc3cc(Cn4c(=O)c(F)cn(CC(F)(F)F)c4=O)sc23)c1O[C@@H]1CCNC[C@@H]1C` [Example 551, 3-[[7-[5-chloro-3-methyl-2-[[(3S,4R)-3-methyl-4-piperidyl]oxy]phenyl]thieno[3,2-b]pyridin-2-yl]methyl]-5-fluoro-1-(2,2,2-trifluoroethyl)pyrimidine-2,4-dione] was run?
Answer: Its IC50 is less than 1 µM.

Question: `Cc1cc(Cl)cc(-c2ccnc3cc(Cn4c(=O)ccn(C)c4=O)sc23)c1OCCN` [Example 552, 3-[[7-[2-(2-aminoethoxy)-5-chloro-3-methyl-phenyl]thieno[3,2-b]pyridin-2-yl]methyl]-1-methyl-pyrimidine-2,4-dione; 2,2,2-trifluoroacetic acid] was tested. Which IC50 did it give?
Answer: The IC50 was less than 1 µM.

Question: For `Cc1cc(Cl)cc(-c2ccnc3cc(Cn4c(=O)ccn(C)c4=O)sc23)c1OC(C)CN` (centres unmarked) [Example 553, 3-[[7-[2-(2-amino-1-methyl-ethoxy)-5-chloro-3-methyl-phenyl]thieno[3,2-b]pyridin-2-yl]methyl]-1-methyl-pyrimidine-2,4-dione; 2,2,2-trifluoroacetic acid], which IC50 is on record?
Answer: The IC50 was less than 1 µM.

Question: `Cc1cc(Cl)cc(-c2ccnc3cc(Cn4c(=O)ccn(C)c4=O)sc23)c1OCC(C)N` (centres unmarked) [Example 554, 3-[[7-[2-(2-aminopropoxy)-5-chloro-3-methyl-phenyl]thieno[3,2-b]pyridin-2-yl]methyl]-1-methyl-pyrimidine-2,4-dione; 2,2,2-trifluoroacetic acid] was tested. Which IC50 did it give?
Answer: Its IC50 is less than 1 µM.

Question: How did the IC50 turn out when `Cc1cc(Cl)cc(-c2ccnc3cc(Cn4c(=O)c(F)cn(CC(F)(F)F)c4=O)sc23)c1O[C@H]1CCCNC1` [Example 555, 3-[[7-[5-chloro-3-methyl-2-[[(3S)-3-piperidyl]oxy]phenyl]thieno[3,2-b]pyridin-2-yl]methyl]-5-fluoro-1-(2,2,2-trifluoroethyl)pyrimidine-2,4-dione] was run?
Answer: The IC50 was less than 1 µM.

Question: For `Cc1cc(Cl)cc(-c2ncnc3cc(Cn4c(=O)c(F)cn(CC(F)(F)F)c4=O)sc23)c1O[C@H]1CCCNC1` [Example 556, 3-[[4-[5-chloro-3-methyl-2-[[(3S)-3-piperidyl]oxy]phenyl]thieno[3,2-d]pyrimidin-6-yl]methyl]-5-fluoro-1-(2,2,2-trifluoroethyl)pyrimidine-2,4-dione], which IC50 is on record?
Answer: Its IC50 is less than 1 µM.

Question: For `Cc1cc(Cl)cc(-c2ccnc3cc(Cn4c(=O)c(C)cn(CC(F)(F)F)c4=O)sc23)c1O[C@H]1CCCNC1` [Example 557, 3-[[7-[5-chloro-3-methyl-2-[[(3S)-3-piperidyl]oxy]phenyl]thieno[3,2-b]pyridin-2-yl]methyl]-5-methyl-1-(2,2,2-trifluoroethyl)pyrimidine-2,4-dione], which IC50 is on record?
Answer: Its IC50 is less than 1 µM.

Question: With `Cc1cc(Cl)cc(-c2ccnc3cc(Cn4c(=O)ccn(CC(F)(F)F)c4=O)sc23)c1O[C@@H]1CCNC[C@H]1C` [Example 558, 3-[[7-[5-chloro-3-methyl-2-[[(3R,4R)-3-methyl-4-piperidyl]oxy]phenyl]thieno[3,2-b]pyridin-2-yl]methyl]-1-(2,2,2-trifluoroethyl)pyrimidine-2,4-dione] as the compound, how does the IC50 read?
Answer: The IC50 was less than 1 µM.

Question: For `Cc1cc(Cl)cc(-c2ccnc3cc(Cn4c(=O)ccn(CC(F)(F)F)c4=O)sc23)c1O[C@H]1CCNC[C@@H]1F` [Example 559, 3-[[7-[5-chloro-2-[[(3S,4S)-3-fluoro-4-piperidyl]oxy]-3-methyl-phenyl]thieno[3,2-b]pyridin-2-yl]methyl]-1-(2,2,2-trifluoroethyl)pyrimidine-2,4-dione], which IC50 is on record?
Answer: The IC50 was less than 1 µM.

Question: With `Cc1cc(Cl)cc(-c2ncnc3cc(Cn4c(=O)ccn(C)c4=O)sc23)c1O[C@H]1CCNC[C@@H]1F` [Example 560, 3-[[4-[5-chloro-2-[[(3S,4S)-3-fluoro-4-piperidyl]oxy]-3-methyl-phenyl]thieno[3,2-d]pyrimidin-6-yl]methyl]-1-methyl-pyrimidine-2,4-dione] as the compound, how does the IC50 read?
Answer: The IC50 was less than 1 µM.

Question: With `Cc1cc(Cl)cc(-c2ncnc3cc(Cn4c(=O)ccn(CC(F)(F)F)c4=O)sc23)c1O[C@@H]1CCNC[C@H]1C` [Example 561, 3-[[4-[5-chloro-3-methyl-2-[[(3R,4R)-3-methyl-4-piperidyl]oxy]phenyl]thieno[3,2-d]pyrimidin-6-yl]methyl]-1-(2,2,2-trifluoroethyl)pyrimidine-2,4-dione] as the compound, how does the IC50 read?
Answer: Its IC50 is less than 1 µM.

Question: With `Cc1cc(Cl)cc(-c2ncnc3cc(Cn4c(=O)ccn(CC(F)(F)F)c4=O)sc23)c1O[C@H]1CC[C@H](C)NC1` [Example 562, 3-[[4-[5-chloro-3-methyl-2-[[(3S,6S)-6-methyl-3-piperidyl]oxy]phenyl]thieno[3,2-d]pyrimidin-6-yl]methyl]-1-(2,2,2-trifluoroethyl)pyrimidine-2,4-dione; 2,2,2-trifluoroacetic acid] as the compound, how does the IC50 read?
Answer: Its IC50 is less than 1 µM.

Question: `Cc1cc(Cl)cc(-c2ccnc3cc(Cn4c(=O)ccn(C(C)C)c4=O)sc23)c1O[C@H]1CCNC[C@@H]1F` [Example 563, 3-[[7-[5-chloro-2-[[(3S,4S)-3-fluoro-4-piperidyl]oxy]-3-methyl-phenyl]thieno[3,2-b]pyridin-2-yl]methyl]-1-isopropyl-pyrimidine-2,4-dione] was tested. Which IC50 did it give?
Answer: The IC50 was less than 1 µM.

Question: With `Cc1cc(Cl)cc(-c2ncnc3cc(Cn4c(=O)ccn(C(C)C)c4=O)sc23)c1O[C@H]1CCNC[C@@H]1F` [Example 564, 3-[[4-[5-chloro-2-[[(3S,4S)-3-fluoro-4-piperidyl]oxy]-3-methyl-phenyl]thieno[3,2-d]pyrimidin-6-yl]methyl]-1-isopropyl-pyrimidine-2,4-dione] as the compound, how does the IC50 read?
Answer: Its IC50 is less than 1 µM.

Question: `Cc1cc(Cl)cc(-c2ccnc3cc(Cn4c(=O)ccn(CC(F)(F)F)c4=O)sc23)c1O[C@H]1CCNC[C@H]1C` [Example 565, 3-[[7-[5-chloro-3-methyl-2-[[(3R,4S)-3-methyl-4-piperidyl]oxy]phenyl]thieno[3,2-b]pyridin-2-yl]methyl]-1-(2,2,2-trifluoroethyl)pyrimidine-2,4-dione] was tested. Which IC50 did it give?
Answer: Its IC50 is less than 1 µM.

Question: With `Cc1cc(Cl)cc(-c2ccnc3cc(Cn4c(=O)ccn(CC(F)(F)F)c4=O)sc23)c1O[C@@H]1CNC[C@@H]1C` [Example 566, 3-[[7-[5-chloro-3-methyl-2-[(3S,4S)-4-methylpyrrolidin-3-yl]oxy-phenyl]thieno[3,2-b]pyridin-2-yl]methyl]-1-(2,2,2-trifluoroethyl)pyrimidine-2,4-dione] as the compound, how does the IC50 read?
Answer: The IC50 was less than 1 µM.
